Values joined by “and” are separate entries in the source; they are usually repeats but may differ in a detail not shown here. Equal entries are not always repeated.
test system: Rattus norvegicus; assay: Antiinflammatory activity in Wistar rat model of carrageenan-induced paw edema assessed as reduction in thickness of paw edema at 10 mg/kg, ip pretreated for 1 hr followed by carrageenan challenge and measured after 1 hr (reference value: 2.41 +/-0.05 mm); assay type: functional; conditions: time 1 hr after carrageenan

| Compound | Activity [mm] |
| --- | --- |
| CC[C@H](C)[C@H](N)C(=O)Oc1ccc(/C=C/C(=O)/C=C(O)/C=C/c2ccc(OC(=O)[C@@H](N)[C@@H](C)CC)c(OC)c2)cc1OC.Cl.Cl | 1.61 |

test system: Rattus norvegicus; assay: Anti-inflammatory activity in Wistar rat assessed as inhibition of carrageenan-induced paw edema at 10 mg/kg, ip pretreated for 1 hr followed by carrageenan challenge and measured after 1 hr relative to control (reference value: 0.00 +/-0.02 %); assay type: functional; conditions: time 2 hrs

| Compound | inhibition in vivo at 10 mg/kg [%] |
| --- | --- |
| CC[C@H](C)[C@H](N)C(=O)Oc1ccc(/C=C/C(=O)/C=C(O)/C=C/c2ccc(OC(=O)[C@@H](N)[C@@H](C)CC)c(OC)c2)cc1OC.Cl.Cl | 33 |

test system: Rattus norvegicus; assay: Antiinflammatory activity in Wistar rat model of carrageenan-induced paw edema assessed as reduction in thickness of paw edema at 10 mg/kg, ip pretreated for 1 hr followed by carrageenan challenge and measured after 2 hrs (reference value: 2.06 +/-0.09 mm); assay type: functional; conditions: time 3 hrs

| Compound | Activity [mm] |
| --- | --- |
| CC[C@H](C)[C@H](N)C(=O)Oc1ccc(/C=C/C(=O)/C=C(O)/C=C/c2ccc(OC(=O)[C@@H](N)[C@@H](C)CC)c(OC)c2)cc1OC.Cl.Cl | 1.31 |

test system: Rattus norvegicus; assay: Anti-inflammatory activity in Wistar rat assessed as inhibition of carrageenan-induced paw edema at 10 mg/kg, ip pretreated for 1 hr followed by carrageenan challenge and measured after 2 hr relative to control (reference value: 0.00 +/-0.03 %); assay type: functional; conditions: time 3 hrs

| Compound | inhibition in vivo at 10 mg/kg [%] |
| --- | --- |
| CC[C@H](C)[C@H](N)C(=O)Oc1ccc(/C=C/C(=O)/C=C(O)/C=C/c2ccc(OC(=O)[C@@H](N)[C@@H](C)CC)c(OC)c2)cc1OC.Cl.Cl | 36 |

test system: Rattus norvegicus; assay: Antiinflammatory activity in Wistar rat model of carrageenan-induced paw edema assessed as reduction in thickness of paw edema at 10 mg/kg, ip pretreated for 1 hr followed by carrageenan challenge and measured after 3 hrs (reference value: 1.79 +/-0.07 mm); assay type: functional; conditions: time 4 hrs

| Compound | Activity [mm] |
| --- | --- |
| CC[C@H](C)[C@H](N)C(=O)Oc1ccc(/C=C/C(=O)/C=C(O)/C=C/c2ccc(OC(=O)[C@@H](N)[C@@H](C)CC)c(OC)c2)cc1OC.Cl.Cl | 0.94 |

test system: Rattus norvegicus; assay: Anti-inflammatory activity in Wistar rat assessed as inhibition of carrageenan-induced paw edema at 10 mg/kg, ip pretreated for 1 hr followed by carrageenan challenge and measured after 3 hr relative to control (reference value: 0.00 +/-0.1 %); assay type: functional; conditions: time 4 hrs

| Compound | inhibition in vivo at 10 mg/kg [%] |
| --- | --- |
| CC[C@H](C)[C@H](N)C(=O)Oc1ccc(/C=C/C(=O)/C=C(O)/C=C/c2ccc(OC(=O)[C@@H](N)[C@@H](C)CC)c(OC)c2)cc1OC.Cl.Cl | 47 |

test system: Rattus norvegicus; assay: Antiinflammatory activity in Wistar rat model of carrageenan-induced paw edema assessed as reduction in thickness of paw edema at 10 mg/kg, ip pretreated for 1 hr followed by carrageenan challenge and measured after 4 hrs (reference value: 1.40 +/-0.10 mm); assay type: functional; conditions: time 5 hrs

| Compound | Activity [mm] |
| --- | --- |
| CC[C@H](C)[C@H](N)C(=O)Oc1ccc(/C=C/C(=O)/C=C(O)/C=C/c2ccc(OC(=O)[C@@H](N)[C@@H](C)CC)c(OC)c2)cc1OC.Cl.Cl | 0.34 |

test system: Rattus norvegicus; assay: Anti-inflammatory activity in Wistar rat assessed as inhibition of carrageenan-induced paw edema at 10 mg/kg, ip pretreated for 1 hr followed by carrageenan challenge and measured after 4 hr relative to control (reference value: 0.00 +/-0.4 %); assay type: functional; conditions: time 5 hrs

| Compound | inhibition in vivo at 10 mg/kg [%] |
| --- | --- |
| CC[C@H](C)[C@H](N)C(=O)Oc1ccc(/C=C/C(=O)/C=C(O)/C=C/c2ccc(OC(=O)[C@@H](N)[C@@H](C)CC)c(OC)c2)cc1OC.Cl.Cl | 76 |

test system: Rattus norvegicus; assay: Antiinflammatory activity in Wistar rat model of carrageenan-induced paw edema assessed as reduction in thickness of paw edema at 10 mg/kg, ip pretreated for 1 hr followed by carrageenan challenge and measured after 24 hrs (reference value: 0.83 +/-0.08 mm); assay type: functional; conditions: time 25 hrs

| Compound | Activity [mm] |
| --- | --- |
| CC[C@H](C)[C@H](N)C(=O)Oc1ccc(/C=C/C(=O)/C=C(O)/C=C/c2ccc(OC(=O)[C@@H](N)[C@@H](C)CC)c(OC)c2)cc1OC.Cl.Cl | 0.58 |

test system: Rattus norvegicus; assay: Anti-inflammatory activity in Wistar rat assessed as inhibition of carrageenan-induced paw edema at 10 mg/kg, ip pretreated for 1 hr followed by carrageenan challenge and measured after 24 hr relative to control (reference value: 0.00 +/-0.3 %); assay type: functional; conditions: time 25 hrs

| Compound | inhibition in vivo at 10 mg/kg [%] |
| --- | --- |
| CC[C@H](C)[C@H](N)C(=O)Oc1ccc(/C=C/C(=O)/C=C(O)/C=C/c2ccc(OC(=O)[C@@H](N)[C@@H](C)CC)c(OC)c2)cc1OC.Cl.Cl | 30 |

test system: Rattus norvegicus; assay: Anti-inflammatory activity in Wistar rat assessed as inhibition of carrageenan-induced paw edema at 10 mg/kg, ip pretreated for 1 hr followed by carrageenan challenge and measured after 4 hr relative to indomethacin; assay type: functional; conditions: time 5 hrs

| Compound | inhibition in vivo at 10 mg/kg [%] |
| --- | --- |
| CC[C@H](C)[C@H](N)C(=O)Oc1ccc(/C=C/C(=O)/C=C(O)/C=C/c2ccc(OC(=O)[C@@H](N)[C@@H](C)CC)c(OC)c2)cc1OC.Cl.Cl | 87 |

test system: Splenocyte; assay: Immunomodulatory activity in Swiss albino mouse splenocytes assessed as cell viability at 10 uM by measuring stimulation index incubated for 72 hrs in presence of mitogenic stimulus phytohaemagglutinin by MTT assay (reference value: 1.00 +/- 0.24); assay type: functional; conditions: not given

| Compound | Activity_index |
| --- | --- |
| CC[C@H](C)[C@H](N)C(=O)Oc1ccc(/C=C/C(=O)/C=C(O)/C=C/c2ccc(OC(=O)[C@@H](N)[C@@H](C)CC)c(OC)c2)cc1OC.Cl.Cl | 1.59 |

test system: Splenocyte; assay: Immunomodulatory activity in Swiss albino mouse splenocytes assessed as cell viability at 10 uM by measuring inhibition of stimulation index incubated for 72 hrs in presence of mitogenic stimulus phytohaemagglutinin by MTT assay relative to indomethacin; assay type: functional; conditions: read-out: Activity

| Compound | viability at 10 µM [%] |
| --- | --- |
| CC[C@H](C)[C@H](N)C(=O)Oc1ccc(/C=C/C(=O)/C=C(O)/C=C/c2ccc(OC(=O)[C@@H](N)[C@@H](C)CC)c(OC)c2)cc1OC.Cl.Cl | 76 |

test system: Peritoneal macrophage; assay: Antiinflammatory activity in […] mouse Peritoneal macrophages assessed as reduction in LPS-induced NO production by measuring reduction in stimulation index at 10 uM preincubated for 1 hr followed by LPS stimulation measured after 24 hrs by Griess method (reference value: 27.31 +/- 2.56 uM); assay type: functional; conditions: time 25 hrs

| Compound | Activity [µM] |
| --- | --- |
| CC[C@H](C)[C@H](N)C(=O)Oc1ccc(/C=C/C(=O)/C=C(O)/C=C/c2ccc(OC(=O)[C@@H](N)[C@@H](C)CC)c(OC)c2)cc1OC.Cl.Cl | 17.63 |

test system: Peritoneal macrophage; assay: Antiinflammatory activity in […] mouse Peritoneal macrophages assessed as inhibition of LPS-induced NO production at 10 uM preincubated for 1 hr followed by LPS stimulation measured after 24 hrs by Griess method relative to control (reference value: 0.0 %); assay type: functional; set-up: scale not given: the % may be the effect or the level left; conditions: time 25 hrs

| Compound | Activity [%] |
| --- | --- |
| CC[C@H](C)[C@H](N)C(=O)Oc1ccc(/C=C/C(=O)/C=C(O)/C=C/c2ccc(OC(=O)[C@@H](N)[C@@H](C)CC)c(OC)c2)cc1OC.Cl.Cl | 35.45 |

test system: Staphylococcus aureus; assay: Antibacterial activity against Staphylococcus aureus ATCC 25923 incubated for 18 hrs by agar dilution method; assay type: functional; conditions: not given

| MIC | Compound |
| --- | --- |
| 0.25 µg/mL and 0.374 µM | CC[C@H](C)[C@H](N)C(=O)Oc1ccc(/C=C/C(=O)/C=C(O)/C=C/c2ccc(OC(=O)[C@@H](N)[C@@H](C)CC)c(OC)c2)cc1OC.Cl.Cl |

test system: Streptococcus pyogenes; assay: Antibacterial activity against Streptococcus pyogenes ATCC 19615 incubated for 18 hrs by agar dilution method; assay type: functional; conditions: not given

| MIC | Compound |
| --- | --- |
| 0.5 µg/mL and 0.749 µM | CC[C@H](C)[C@H](N)C(=O)Oc1ccc(/C=C/C(=O)/C=C(O)/C=C/c2ccc(OC(=O)[C@@H](N)[C@@H](C)CC)c(OC)c2)cc1OC.Cl.Cl |

test system: Salmonella typhimurium; assay: Antibacterial activity against Salmonella typhimurium ATCC 19430 incubated for 18 hrs by agar dilution assay; assay type: functional, Salmonella enterica subsp. enterica serovar Typhimurium; conditions: Salmonella enterica

| MIC | Compound |
| --- | --- |
| 0.125 µg/mL and 0.187 µM | CC[C@H](C)[C@H](N)C(=O)Oc1ccc(/C=C/C(=O)/C=C(O)/C=C/c2ccc(OC(=O)[C@@H](N)[C@@H](C)CC)c(OC)c2)cc1OC.Cl.Cl |

test system: Pseudomonas aeruginosa; assay: Antibacterial activity against Pseudomonas aeruginosa ATCC 27853 incubated for 18 hrs by agar dilution assay; assay type: functional; conditions: not given

| MIC | Compound |
| --- | --- |
| 0.25 µg/mL and 0.374 µM | CC[C@H](C)[C@H](N)C(=O)Oc1ccc(/C=C/C(=O)/C=C(O)/C=C/c2ccc(OC(=O)[C@@H](N)[C@@H](C)CC)c(OC)c2)cc1OC.Cl.Cl |

test system: Candida albicans; assay: Antifungal activity against Candida albicans incubated for 18 to 24 hrs by CLSI method; assay type: functional; conditions: time 18-24 hrs

| MIC | Compound |
| --- | --- |
| 0.125 µg/mL and 0.187 µM | CC[C@H](C)[C@H](N)C(=O)Oc1ccc(/C=C/C(=O)/C=C(O)/C=C/c2ccc(OC(=O)[C@@H](N)[C@@H](C)CC)c(OC)c2)cc1OC.Cl.Cl |

test system: A549; assay: Antiproliferative activity against human A549 cells assessed as inhibition of cell growth after 72 hrs by MTT assay; assay type: functional, cell-based; conditions: A549, 72 h

| IC50 [µM] | Compound |
| --- | --- |
| 20.9 | CC[C@H](C)[C@H](N)C(=O)Oc1ccc(/C=C/C(=O)/C=C(O)/C=C/c2ccc(OC(=O)[C@@H](N)[C@@H](C)CC)c(OC)c2)cc1OC.Cl.Cl |

test system: MCF7; assay: Antiproliferative activity against human MCF7 cells assessed as inhibition of cell growth after 72 hrs by MTT assay; assay type: functional, cell-based; conditions: MCF7, 72 h

| IC50 [µM] | Compound |
| --- | --- |
| 10.2 | CC[C@H](C)[C@H](N)C(=O)Oc1ccc(/C=C/C(=O)/C=C(O)/C=C/c2ccc(OC(=O)[C@@H](N)[C@@H](C)CC)c(OC)c2)cc1OC.Cl.Cl |

test system: PC-3; assay: Antiproliferative activity against human PC3 cells assessed as inhibition of cell growth after 72 hrs by MTT assay; assay type: functional, cell-based; conditions: PC-3, 72 h

| IC50 [µM] | Compound |
| --- | --- |
| 34.4 | CC[C@H](C)[C@H](N)C(=O)Oc1ccc(/C=C/C(=O)/C=C(O)/C=C/c2ccc(OC(=O)[C@@H](N)[C@@H](C)CC)c(OC)c2)cc1OC.Cl.Cl |
| 38 | COc1cccc2c1C(=O)c1c(O)c3c(c(O)c1C2=O)C[C@@](O)(C(=O)CO)C[C@@H]3O[C@H]1C[C@H](N)[C@H](O)[C@H](C)O1 [DOXORUBICIN] |

Source: ChEMBL document CHEMBL4765295, “Synthesis, pharmacological profile and 2D-QSAR studies of curcumin-amino acid conjugates as potential drug candidates” (Eur J Med Chem, 2020)
